From the supplement of paper PMC10307832

What was measured:
Assay in all cases: relative viability (nuclei count vs DMSO), 5 days (fraction); higher = more cells survive
HCC-366 = tested on: HCC-366
Procedure, shortened: (§1)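 After 5 days of treatment, lung cancer cells in 1536-well plates were fixed and stained in a single step (final 0.05% Triton X-100, 1% formaldehyde, 1 ug/ml Hoechst) and their nuclei counted on 4× images. Treatment had been applied by pin tool the day after seeding as one drug alone or as a fixed anchor-drug dose with five library-drug doses (not always all listed) in √10 steps. Relative viability is the nuclei count of treated wells divided by that of vehicle wells, and values are medians of duplicate plates.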

NCI-H650 = tested on: NCI-H650
Procedure, shortened: as §1

COR-L23 = tested on: COR-L23
Procedure, shortened: as §1

201T = tested on: 201T
Procedure, shortened: as §1

NCI-H2085 = tested on: NCI-H2085
Procedure, shortened: as §1

LU99A = tested on: LU99A
Procedure, shortened: as §1

NCI-H23 = tested on: NCI-H23
Procedure, shortened: as §1

H3255 = tested on: H3255
Procedure, shortened: as §1

SK-LU-1 = tested on: SK-LU-1
Procedure, shortened: as §1

NCI-H1650 = tested on: NCI-H1650
Procedure, shortened: as §1

NCI-H1651 = tested on: NCI-H1651
Procedure, shortened: as §1

NCI-H358 = tested on: NCI-H358
Procedure, shortened: as §1

NCI-H3122 = tested on: NCI-H3122
Procedure, shortened: as §1

NCI-H1755 = tested on: NCI-H1755
Procedure, shortened: as §1

HCC-78 = tested on: HCC-78
Procedure, shortened: as §1

NCI-H2087 = tested on: NCI-H2087
Procedure, shortened: as §1

NCI-H460 = tested on: NCI-H460
Procedure, shortened: as §1

NCI-H1793 = tested on: NCI-H1793
Procedure, shortened: as §1

PC-3 [JPC-3] = tested on: PC-3 [JPC-3]
Procedure, shortened: as §1

NCI-H522 = tested on: NCI-H522
Procedure, shortened: as §1

HARA = tested on: HARA
Procedure, shortened: as §1

NCI-H322M = tested on: NCI-H322M
Procedure, shortened: as §1

## CN1CCN(CCOc2cc(OC3CCOCC3)c3c(Nc4c(Cl)ccc5c4OCO5)ncnc3c2)CC1 [Saracatinib] + CC(=O)c1c(C)c2cnc(Nc3ccc(N4CCNCC4)cn3)nc2n(C2CCCC2)c1=O [Palbociclib] (partner 0.5 µM)
HCC-366; first compound 0.02 µM
  relative viability: 0.382
HCC-366; first compound 0.2 µM
  relative viability: 0.176
HCC-366; first compound 0.6325 µM
  relative viability: 0.272
HCC-366; first compound 2 µM
  relative viability: 0.164
NCI-H650; first compound 0.02 µM
  relative viability: 0.336
NCI-H650; first compound 0.2 µM
  relative viability: 0.314
NCI-H650; first compound 0.6325 µM
  relative viability: 0.33
NCI-H650; first compound 2 µM
  relative viability: 0.307
COR-L23; first compound 0.02 µM
  relative viability: 0.278
COR-L23; first compound 0.2 µM
  relative viability: 0.301
COR-L23; first compound 0.6325 µM
  relative viability: 0.243
COR-L23; first compound 2 µM
  relative viability: 0.287
201T; first compound 0.02 µM
  relative viability: 0.358
201T; first compound 0.2 µM
  relative viability: 0.311
201T; first compound 0.6325 µM
  relative viability: 0.323
201T; first compound 2 µM
  relative viability: 0.26
NCI-H2085; first compound 0.02 µM
  relative viability: 0.518
NCI-H2085; first compound 0.2 µM
  relative viability: 0.448
NCI-H2085; first compound 0.6325 µM
  relative viability: 0.499
NCI-H2085; first compound 2 µM
  relative viability: 0.48
LU99A; first compound 0.02 µM
  relative viability: 0.413
LU99A; first compound 0.2 µM
  relative viability: 0.336
LU99A; first compound 0.6325 µM
  relative viability: 0.349
LU99A; first compound 2 µM
  relative viability: 0.31
NCI-H23; first compound 0.02 µM
  relative viability: 0.526
NCI-H23; first compound 0.6325 µM
  relative viability: 0.573
NCI-H23; first compound 2 µM
  relative viability: 0.403
H3255; first compound 0.02 µM
  relative viability: 0.329
H3255; first compound 0.2 µM
  relative viability: 0.31
H3255; first compound 0.6325 µM
  relative viability: 0.336
H3255; first compound 2 µM
  relative viability: 0.297
SK-LU-1; first compound 0.02 µM
  relative viability: 0.517
SK-LU-1; first compound 0.2 µM
  relative viability: 0.297
SK-LU-1; first compound 0.6325 µM
  relative viability: 0.328
SK-LU-1; first compound 2 µM
  relative viability: 0.254
NCI-H1650; first compound 0.02 µM
  relative viability: 0.334
NCI-H1650; first compound 0.2 µM
  relative viability: 0.28
NCI-H1650; first compound 0.6325 µM
  relative viability: 0.267
NCI-H1650; first compound 2 µM
  relative viability: 0.159
NCI-H1651; first compound 0.02 µM
  relative viability: 0.587
NCI-H1651; first compound 0.2 µM
  relative viability: 0.478
NCI-H1651; first compound 0.6325 µM
  relative viability: 0.642
NCI-H1651; first compound 2 µM
  relative viability: 0.567
NCI-H358; first compound 0.02 µM
  relative viability: 0.136
NCI-H358; first compound 0.2 µM
  relative viability: 0.118
NCI-H358; first compound 0.6325 µM
  relative viability: 0.127
NCI-H358; first compound 2 µM
  relative viability: 0.0903
NCI-H3122; first compound 0.02 µM
  relative viability: 0.194
NCI-H3122; first compound 0.2 µM
  relative viability: 0.174
NCI-H3122; first compound 0.6325 µM
  relative viability: 0.199
NCI-H3122; first compound 2 µM
  relative viability: 0.185
NCI-H1755; first compound 0.02 µM
  relative viability: 0.448
NCI-H1755; first compound 0.2 µM
  relative viability: 0.395
NCI-H1755; first compound 0.6325 µM
  relative viability: 0.45
NCI-H1755; first compound 2 µM
  relative viability: 0.435
HCC-78; first compound 0.02 µM
  relative viability: 0.461
HCC-78; first compound 0.2 µM
  relative viability: 0.406
HCC-78; first compound 0.6325 µM
  relative viability: 0.45
HCC-78; first compound 2 µM
  relative viability: 0.342
NCI-H2087; first compound 0.02 µM
  relative viability: 0.252
NCI-H2087; first compound 0.2 µM
  relative viability: 0.255
NCI-H2087; first compound 0.6325 µM
  relative viability: 0.303
NCI-H2087; first compound 2 µM
  relative viability: 0.179
NCI-H460; first compound 0.02 µM
  relative viability: 0.146
NCI-H460; first compound 0.2 µM
  relative viability: 0.131
NCI-H460; first compound 0.6325 µM
  relative viability: 0.228
NCI-H460; first compound 2 µM
  relative viability: 0.121
NCI-H1793; first compound 0.02 µM
  relative viability: 0.363
NCI-H1793; first compound 0.2 µM
  relative viability: 0.311
NCI-H1793; first compound 0.6325 µM
  relative viability: 0.299
NCI-H1793; first compound 2 µM
  relative viability: 0.278
PC-3 [JPC-3]; first compound 0.02 µM
  relative viability: 0.568
PC-3 [JPC-3]; first compound 0.2 µM
  relative viability: 0.507
PC-3 [JPC-3]; first compound 0.6325 µM
  relative viability: 0.532
PC-3 [JPC-3]; first compound 2 µM
  relative viability: 0.561
NCI-H522; first compound 0.02 µM
  relative viability: 0.914
NCI-H522; first compound 0.2 µM
  relative viability: 0.802
NCI-H522; first compound 0.6325 µM
  relative viability: 0.911
NCI-H522; first compound 2 µM
  relative viability: 0.756
HARA; first compound 0.02 µM
  relative viability: 0.234
HARA; first compound 0.2 µM
  relative viability: 0.208
HARA; first compound 0.6325 µM
  relative viability: 0.269
HARA; first compound 2 µM
  relative viability: 0.161
NCI-H322M; first compound 0.02 µM
  relative viability: 0.534
NCI-H322M; first compound 0.2 µM
  relative viability: 0.38
NCI-H322M; first compound 0.6325 µM
  relative viability: 0.46
NCI-H322M; first compound 2 µM
  relative viability: 0.306
